Reference: patent US8163952B2, “RAR receptor agonist ligands and use thereof in human medicine and cosmetics” (Galderma Research & Development, priority 2007, dated 2012)

Legend:
RARα = target: T1, RARα (Homo sapiens, UniProt P10276); test: Transactivation assay (luciferase reporter, crossed curves vs reference agonist, Schild regression); format: cell-based; settings: HeLa stable transfectants, ERE-βGlob-Luc-SV-Neo reporter and RARα ER-DBD-puro; 18 hours incubation; apparent Kd; read-out: RARα Kdapp
T1 sequence (P10276 183-462 limits assumed): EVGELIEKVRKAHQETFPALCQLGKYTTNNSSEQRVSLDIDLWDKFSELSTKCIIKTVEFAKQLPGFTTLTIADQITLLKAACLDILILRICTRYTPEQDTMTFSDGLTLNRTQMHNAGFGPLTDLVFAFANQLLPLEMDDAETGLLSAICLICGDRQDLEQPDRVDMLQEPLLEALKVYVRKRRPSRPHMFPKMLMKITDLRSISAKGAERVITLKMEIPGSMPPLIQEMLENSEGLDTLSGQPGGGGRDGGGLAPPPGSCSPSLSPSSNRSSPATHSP
Method: (§1) This activity on RARα, β and γ receptors is measured in a transactivation test and quantified by means of the dissociation constant Kdapp (apparent).
(§2) The activation of receptors with an agonist (activator) in HeLa cells leads to the expression of a reporter gene, luciferase, which, in the presence of a substrate, generates light. The activation of the receptors can thus be measured by quantifying the luminescence produced after incubation of the cells in the presence of a reference agonist. Inhibitory products will displace the agonist from its site, thus preventing activation of the receptor. The activity is measured by quantifying the decrease in light produced. This measurement makes it possible to determine the inhibitory activity of the compounds according to the invention.
(§3) In this study, a constant is determined which represents the affinity of the molecules for the receptor. Since this value can fluctuate depending on the basal activity and the expression of the receptor, it is referred to as the Kd apparent (KdApp).
(§4) To determine this constant, “crossed curves” of the test product against a reference agonist, 4-[2-(5,5,8,8-tetramethyl-5,6,7,8-tetrahydronaphthalen-2-yl)propenyl]benzoic acid, are realized in 96-well plates. The test product is used at 10 concentrations and the reference agonist at 7 concentrations. In each well, the cells are in contact with a concentration of the test product and with a concentration of the reference agonist, 4-[2-(5,5,8,8-tetramethyl-5,6,7,8-tetrahydronaphthalen-2-yl)]propenyl]benzoic acid. Measurements are also carried out for the total agonist control (4-[2-(5,5,8,8-tetramethyl-5,6,7,8-tetrahydro-naphthalen-2-yl)propenyl]benzoic acid) and the inverse agonist control, 4-{(E)-3[4-(4-tert-butylphenyl)-5,5,8,8-tetramethyl-5,6,7,8-tetrahydronaphthalen-2-yl]-3-oxopropenyl}benzoic acid.
(§5) These AC50 values are used to calculate the Schild regression by plotting a straight line corresponding to the Schild equation (“Quantitation in receptor pharmacology” Tervy P. Kenakin, Receptors and Channels, 2001, 7, 371-385).
(§6) The HeLa cell lines used are stable transfectants containing the ERE-βGlob-Luc-SV-Neo (reporter gene) and RAR (α, β, γ) ER-DBD-puro plasmids. These cells are seeded in 96-well plates at a rate of 10 000 cells per well in 100 μl of DMEM medium without phenol red, supplemented with 10% of defatted calf serum. The plates are then incubated at 37° C., 7% CO2, for 4 hours.
(§7) The plates are then incubated for 18 hours at 37° C., 7% CO2. The culture medium is removed by turning the plates over, and 100 μl of a 1:1 PBS/luciferin mixture are added to each well. After 5 minutes, the plates are read using a luminescence reader.

RARβ = target: T2, RARβ (Homo sapiens, UniProt P10826); test: as above; format: cell-based; settings: HeLa stable transfectants, ERE-βGlob-Luc-SV-Neo reporter and RARβ ER-DBD-puro; 18 hours incubation; apparent Kd; read-out: RARβ Kdapp
T2 sequence (P10826 154-455 limits assumed): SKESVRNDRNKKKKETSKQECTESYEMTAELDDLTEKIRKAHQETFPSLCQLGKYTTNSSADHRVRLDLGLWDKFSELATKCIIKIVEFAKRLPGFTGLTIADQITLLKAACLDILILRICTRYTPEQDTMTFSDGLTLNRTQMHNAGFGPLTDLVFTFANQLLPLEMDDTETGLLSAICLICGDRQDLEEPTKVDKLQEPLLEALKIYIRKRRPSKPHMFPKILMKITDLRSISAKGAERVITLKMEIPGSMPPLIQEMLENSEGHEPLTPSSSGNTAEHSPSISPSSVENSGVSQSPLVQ
Method: as §1, §2, §3, §4, §5, §6, §7

RARγ = target: T3, RARγ (Homo sapiens, UniProt P13631); test: as above; format: cell-based; settings: HeLa stable transfectants, ERE-βGlob-Luc-SV-Neo reporter and RARγ ER-DBD-puro; 18 hours incubation; apparent Kd; read-out: RARγ Kdapp
T3 sequence (P13631 185-454 limits assumed): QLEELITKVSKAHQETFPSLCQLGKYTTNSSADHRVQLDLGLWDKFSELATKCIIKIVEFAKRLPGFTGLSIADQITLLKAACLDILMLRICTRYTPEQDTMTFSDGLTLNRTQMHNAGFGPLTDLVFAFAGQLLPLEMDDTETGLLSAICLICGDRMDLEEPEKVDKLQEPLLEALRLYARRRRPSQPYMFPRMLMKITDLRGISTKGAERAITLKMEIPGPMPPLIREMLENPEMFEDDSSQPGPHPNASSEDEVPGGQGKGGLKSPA
Method: as §1, §2, §3, §4, §5, §6, §7

CN(C)c1c(Cl)cc(C(O)C#Cc2ccc(C(=O)O)cc2)cc1C(C)(C)C (stereo not drawn) [Compound of example 7, 4-[3-(3-tert-butyl-5-chloro-4-dimethylaminophenyl)-3-hydroxyprop-1-ynyl]benzoic acid]
Kd (RARα): 120 nM
Kd (RARβ): 15 nM
Kd (RARγ): 2 nM

CCN(CC)c1ccc(C(O)C#Cc2ccc(C(=O)O)cc2)cc1C(C)C (stereo not drawn) [Compound of example 11, 4-[3-(4-diethylamino-3-isopropylphenyl)-3-hydroxyprop-1-ynyl]benzoic acid]
Kd (RARα): 1000 nM
Kd (RARβ): 60 nM
Kd (RARγ): 30 nM

CN(C)c1c(Cl)cc(C(O)C#Cc2ccc(C(=O)O)c(O)c2)cc1C(C)(C)C (stereo not drawn) [Compound of example 8, 4-[3-(3-tert-butyl-5-chloro-4-dimethylaminophenyl)-3-hydroxyprop-1-ynyl]-2-hydroxybenzoic acid]
Kd (RARα): 250 nM
Kd (RARβ): 60 nM
Kd (RARγ): 4 nM

CCN(CC)c1ccc(C(O)C#Cc2ccc(C(=O)O)cc2)cc1C(C)(C)C (stereo not drawn) [Compound of example 1, 4-[3-(3-tert-butyl-4-diethylaminophenyl)-3-hydroxyprop-1-ynyl]benzoic acid]
Kd (RARα): 625 nM
Kd (RARβ): 185 nM
Kd (RARγ): 37.5 nM
melting point: 140 °C

CC(C)(C)c1cc(C(O)C#Cc2ccc(C(=O)O)cc2)ccc1N1CCCC1 (stereo not drawn) [Compound of example 4, 4-[3-(3-tert-butyl-4-pyrrolidin-1-ylphenyl)-3-hydroxyprop-1-ynyl]benzoic acid]
Kd (RARα): 1000 nM
Kd (RARβ): 252 nM
Kd (RARγ): 30 nM

CCN(CC)c1ccc(C(O)C#Cc2ccc(C(=O)O)c(O)c2)cc1C(C)(C)C (stereo not drawn) [Compound of example 6, 4-[3-(3-tert-butyl-4-diethylaminophenyl)-3-hydroxyprop-1-ynyl]-2-hydroxybenzoic acid]
Kd (RARα): 250 nM
Kd (RARβ): 500 nM
Kd (RARγ): 60 nM

CC(C)c1cc(C(O)C#Cc2ccc(C(=O)O)cc2)cc(C(C)C)c1N(C)C (stereo not drawn) [Compound of example 9, 4-[3-(4-Dimethylamino-3,5-diisopropylphenyl)-3-hydroxyprop-1-ynyl]benzoic acid]
Kd (RARα): 60 nM
Kd (RARβ): 60 nM
Kd (RARγ): 0.5 nM

CN(C)c1ccc(C(O)C#Cc2ccc(C(=O)O)cc2)cc1C(C)(C)C (stereo not drawn) [Compound of example 3, 4-[3-(3-tert-butyl-4-dimethylaminophenyl)-3-hydroxyprop-1-ynyl]benzoic acid]
Kd (RARα): 250 nM
Kd (RARβ): 120 nM
Kd (RARγ): 15 nM

CC(C)c1cc(C(O)C#Cc2ccc(C(=O)O)c(O)c2)cc(C(C)C)c1N(C)C (stereo not drawn) [Compound of example 10, 4-[3-(4-Dimethylamino-3,5-diisopropylphenyl)-3-hydroxyprop-1-ynyl]-2-hydroxybenzoic acid]
Kd (RARα): 1000 nM
Kd (RARβ): 120 nM
Kd (RARγ): 1 nM

CC(C)(C)c1cc(C(O)C#Cc2ccc(C(=O)O)cc2)ccc1N1CCCCC1 (stereo not drawn) [Compound of example 5, 4-[3-(3-tert-butyl-4-piperidin-1-ylphenyl)-3-hydroxyprop-1-ynyl]benzoic acid]
Kd (RARα): 4010 nM
Kd (RARβ): 2020 nM
